One data set concerns TGF-β1. The experiment in a line: Real-time RT-PCR of TGF-β1 mRNA in HSC T6 cells. Type of data set: cell-based, rat. The settings on record: 48 h. The method, then:
FIG. 9. DBZIM and TDBZIM suppressed TGF-β1 mRNA. HSC T6 cells were incubated with (a) DBZIM (1, 10, 100 and 300 μM) and (b) TDBZIM (1, 10 and 100 μM) for 48 h for the dosage-dependent study, and (c) with DBZIM (100 μM) and TDBZIM (100 μM) for 8, 24 and 48 h for the time-dependent study. The expression level of TGF-β1 mRNA was quantified with real-time RT-PCR. The data were presented as mean and SEM, N=6, *^aP<0.05, *^bP<0.01, *^cP<0.005, when compared to vehicle control.
Total RNA was isolated using NucleoSpin RNAII isolation kit (Nacherey & Nagel, Germany), and quantified by ND-100 spectrophotometer (Nanodrop Technologies, DE, USA). The details of real-time RT-PCR were reported elsewhere (Zhang et al. 2006). Briefly, it was a two-step real-time RT-PCR using Taqman chemistry. Total RNA was first reverse transcribed to cDNA, and real-time PCR was run and detected in ABI 7500 Fast Real-Time PCR System (Applied Biosystems, CA, USA). Primers and probes for rat GFAP, SMAA, collagen Ia1, fibronectin, TGF-β1, TGF-β receptor I (TGFβ RI) and IL-6 were ordered from Taqman's assay-on-demand database. Rat β-actin was used as normalization gene, and its expression level was constant (CT difference was <±0.5) throughout the experimental settings in this study. Relative quantification of target mRNA was calculated using comparative threshold cycle method (ΔΔCT) as described in User Bulletin #2 (ABI Prism 7700 Sequence Detection System). Relative quantification was given by 2^−ΔΔCT to express the up-regulation or down regulation of the target gene under the treatments compared to the control.

The next data set relates to FVB mice. The data set is described as follows: General toxicity of IMSs in mice. In kind it is in vivo. The settings on record: intraperitoneally every other day for 2 weeks. The method, then:
(§1) IMSs (DPIM and DBZIM) were dissolved in saline, and administered to Friend virus B-Type (FVB) mice (weighing ˜25-30 g) intraperitoneally every other day for 2 weeks. The dosages were 0, 200, 300, 350, 400 and 500 mg/kg for DPIM, and 0, 10, 30, 35, 40 and […] for DBZIM. The injection volume was maintained at 100-160 μl. The mortality rate of mice was assessed after the treatment. The animal experimental protocol was approved by the Institutional Animal Care and Use Committee (IACUC) of Biological Resource Center (BRC) at Biopolis, Singapore.
(§2) In the preliminary toxicity studies, two forms of IMSs were selected for in vivo testing with FVB inbred mice. For DBZIM, the lethal dosage was 50 mg/kg and LD50 was estimated to be 30-40 mg/kg. For DPIM, the lethal dosage was 500 mg/kg and LD50 was ˜300-400 mg/kg.

The nature of data set [1]: General toxicity of IMSs in mice. Type of data set: in vivo. As to conditions: mouse, in vivo, ip; FVB mice, intraperitoneally every other day for 2 weeks; estimated. The method, then:
as §1, §2

A further data set concerns HLE cells. The experiment in a line: Apoptosis assay (Annexin V-FITC/PI flow cytometry). In kind it is cell-based, human. As to conditions: 72 h, IBN-15 60 μM, IBN-19 90 μM, IBN-24 90 μM, IBN-25 30 μM, IBN-32 20 μM, DMSO 0.045%. The method, then: FIG. 36. IMSs induce apoptosis in Hepatocarcinoma cells. A) Cells were treated with vehicle and IBN 15, IBN 19, IBM 24, IBN 25 and IBN 32 for 72 h, and apoptosis was quantified using Annexin V-FITC/PI staining followed by flow cytometric analysis. 10,000 cells were detected for every sample. Living cells are in the bottom left quadrants (FITC− and PI−), early apoptotic cells in the bottom right quadrants (FITC+ and PI−), and late apoptotic cells in the upper right quadrants (apoptotic FITC+ and PI+). B) The percentage of apoptotic cells with respect to different IMSs.
To determine apoptosis analysis, 4×10^5 cells were plated in 10 cm dish. […] The floating and trypsinized adherent cells were collected and the apoptosis was quantified using Annexin V-FITC reagent (BD Biosciences Pharmingen) and PI (Invitrogen) following the manufacturer's protocol. Briefly, the cells were washed twice with cold PBS and then resuspend cell in 100 μl of × binding buffer containing a 10 μl of Annexin V-FITC (BD-Pharminagen) and 2 μl of PI from the stock of 100 μg/ml. The cells were gently vortexed and incubated for 15 min at room temperature in the dark. Subsequently 400 μl of 1× binding buffer were added to each tube, and the samples were immediately analyzed by FACScan flow cytometer (Becton Dickinson). The fluorescent signals of the Annexin-V conjugate and PI were detected at channels of fluorescence intensity FL1 and FL2 (BD LSR II with software BD).
Cells undergoing apoptosis would stain positive for Annexin and negative for PI (quadrant 4, Q4). Cells which stained positive for both Annexin V-FITC and PI (Q2) are either at the end stage of apoptosis or undergoing necrosis, and those which stained negative for both Annexin V-FITC and PI (Q3) were alive or undergoing undetectable apoptosis. In contrast, cell debris stained only for PI (Q1).
Background: Flow cytometry measures light scatter and fluorescence of single cells or particles in a stream.

In the case of “1,3,5-tris(4-methyl-imidazolium)-linked cyclophane.3Br [TDBZIM]”, the “inhibition of TGF-β1 mRNA” value in the data set on TGF-β1 (regardless of dosage (1-100 μM)) is given as approximately 23%.

In the data set on FVB mice, `[Br-].c1ccc(Cn2cc[n+](Cc3ccccc3)c2)cc1` [DBZIM, 1,3-bisbenzylimidazolium bromide] came in with a lethal dosage of 50 mg/kg. The LD50 at 2 weeks in data set [1] was 30 to 40 mg/kg. Moreover, the “suppression of TGF-β1 mRNA” value with TGF-β1 (100 μM) is 28%; in the data set with TGF-β1 (300 μM) it was 33%.

In the case of `CC(C)n1cc[n+](C(C)C)c1.F[B-](F)(F)F` [DPIM, 1,3-diisopropylimidazolium tetrafluoroborate], in the data set with FVB mice, the lethal dosage was determined as 500 mg/kg. In addition, the LD50 at 2 weeks in data set [1] is 300 to 400 mg/kg.

As for `CC(=O)Oc1ccc(C[n+]2ccn(Cc3ccccc3)c2C)cc1.[Cl-]` [IBN-19, 1-benzyl-3-(4-acetate-benzyl)-2-methyl-imidazolium chloride], in the data set with HLE cells, the “cell apoptosis (Q2)” value was determined as 29%.

Turning to `Cc1ccc(C[n+]2ccn(Cc3ccccc3)c2)cc1.[Cl-]` [IBN-24, 1-benzyl-3-(4-methylbenzyl)-imidazolium chloride], the “cell apoptosis (Q2)” value in the data set with HLE cells came out at 29%.

As usually defined, the LD50 is the dose expected to kill half of the subjects tested.

(Values after patent publication US9072729B2, “Method for treating fibrosis and cancer with imidazolium and imidazolinium compounds” (Agency for Science, Technology and Research, priority 2008, dated 2015).)
